Tests used:
rat formalin model = assay: Analgesic effects of intragastric administration in a rat formalin model; format: in vivo, SD rats; conditions: mean ± SD; for Reaction time for phase I: licking time 0-5 min after formalin; for Reaction time for Phase II: licking time 15-30 min after formalin
Description: SD rats (male, weight 160-180 g) were randomly divided into groups with 6 rats in each group. After the rats were intragastrically administered different doses separately, they were placed in PVC observation boxes for habituation. After 30 min, the rats were injected subcutaneously with 20 μL of 2.7% formalin solution into the plantar surface of the left hind paws, and quickly put back in the PVC observation boxes for observation. The length of time the rats spent licking the injected-formalin paws at the early response (0-5 min, phase I) and the late response (15-30 min, Phase II) was recorded, and the analgesic activities of the test compounds were evaluated according to the length of time the rats spent licking during the period of observation. The experimental data were expressed as mean±standard deviation. The shorter the licking time, the better the analgesic effect of the compound.

Wistar rats = assay: Evaluation of subacute toxicity (14 days, intragastric); format: in vivo; conditions: 40 mg/kg intragastric once a day for 14 days; for ALT / AST: rat; for histopathological examination of liver / plasma ALT and AST versus control group: result in words
Description: Male Wistar rats were randomly divided into groups with 10 rats in each group and weighed. A certain concentration of a test sample was ground and suspended in a 0.5% sodium carboxymethyl cellulose solution. The sodium carboxymethyl cellulose suspension containing 40 mg/kg of the test compound and a blank sodium carboxymethyl cellulose suspension as a control were intragastrically administered, once a day for 14 consecutive days. After the last administration, the rats were fasted but had free access to drinking water for 12 hours, and then anesthetized. Their blood samples were obtained from the abdominal aortas. According to SOPB093 “Standard Operating Procedures for Serum Preparation” in National Beijing Center for Drug Safety Evaluation and Research, serum was prepared for the determination of blood biochemical and immunological indicators; according to SOPB032 “Preparation of vacuum tubes with EDTA anticoagulation”, EDTA anticoagulation was prepared for the general blood routine tests.

[1] = system: rat chronic sciatic nerve compression neuralgia model; assay: Analgesic effects of intragastric administration in a rat chronic sciatic nerve compression neuralgia model; format: in vivo, SD rats; conditions: pain threshold 1 hour after administration
Description: SD rats (male, weight 160-180 g) were anesthetized using sodium pentobarbital (40 mg/kg), of which the sciatic nerves were separated in the middle segment of the right hind limbs. In the anterior segment of the sciatic nerve to be bifurcated, the sciatic nerve was separated from the surrounding tissue using a sterile glass hook. Four rings were loosely ligated with sterile chrome gut (No. 4, 0.15 mm in diameter) by an interval of 1 to 2 mm. Topically sprinkled with penicillin powder. The muscle tissue and skin were sutured. The rats were placed in a cage with cork dust. In the sham surgery group, the sciatic nerve was only exposed, and the other treatments were the same as described above. The rats after surgery were placed in a metal cage. […] The weight of the filament was recorded and set to be the threshold (in g). Meanwhile, the number of foot-lifting response to the 10 stimulations of the fiber filaments of different weights was recorded, and the highest threshold was set at 26 g.
5-6 rats in each group were intragastrically administered and the pain thresholds were measured 1 hour after administration. Statistical analysis of the thresholds was performed using non-parametric Wilcoxon 2-Sample Test and Kruskal-Wallis Test, and the data was analyzed with SASS data processing software. Analgesic percent (%)=(pain threshold after drug treatment−pain threshold before drug treatment)/(maximal analgesia threshold−pain threshold before drug treatment)[…].

blood pressure in rats = assay: Effects on blood pressure in rats; format: in vivo, SD rats
Description: (§1) SD rats (male, weight 160-180 g) were fasted for 12 hours before administration but had free access to drinking water. The rats were randomly divided into groups. They were anesthetized with an intraperitoneal injection of 50-60 mg/kg dose of sodium pentobarbital. Each rat was fixed on the back on the surgical table. The skin was cut from the center of the neck, and an incision of about 2.5 cm was made. The subcutaneous tissue and the median muscle were separated; the trachea was fully exposed; and the endotracheal intubation was performed. The subcutaneous tissue was separated from front to back on the right side; the right common carotid artery, the vagus nerve and the sympathetic nerve were exposed; and the carotid artery cannulation was performed. Finally, the endotracheal tube and the carotid artery cannula were respectively connected to a respiration transducer and a blood pressure transducer, and then connected to a multifunctional physiological recorder. At 30 minutes after surgery, the rats were intragastrically administrated. Heart rate and blood pressure were measured at different time points after administration.

heart rate in rats = assay: Effects on heart rate in rats; format: in vivo, SD rats
Description: as §1

[2] = system: oxycodone-induced place preference in rats; assay: Inhibition of oxycodone-induced place preference in rats; format: in vivo, SD rats; conditions: day 10, within 15 minutes
Description: SD rats (male, weight 160-180 g) were placed in conditioned place preference (CPP) training boxes, where the partition door between the boxes was open. Time the rats spent in each of the boxes was recorded within 15 min in order to determine the natural tendency of the rats. The rats were then randomly divided into groups with 10 rats in each group according to the amount of time spent in the white box. The white box was a drug box, and the black box was a box with the absence of the drug. After intragastric administration with a test compound for 40 minutes, the rats were injected subcutaneously with oxycodone (2.5 mg/kg, s.c.) or saline, and immediately placed in the white box or the black box to be trained for 45 minutes, once a day for 9 consecutive days. On the 10th day, the rats were placed in the training boxes with the partition door open. The time the rats spent in the white box was recorded within 15 minutes to evaluate effects on place preference in the rats.

[3] = 20 mg/kg intragastric, time point 0
[4] = 20 mg/kg intragastric, time point 30
[5] = 20 mg/kg intragastric, time point 60
[6] = 20 mg/kg intragastric, time point 90
[7] = 20 mg/kg intragastric, time point 120
[8] = 20 mg/kg intragastric, time point 180
[9] = 40 mg/kg intragastric, time point 0
[10] = 40 mg/kg intragastric, time point 30
[11] = 40 mg/kg intragastric, time point 60
[12] = 40 mg/kg intragastric, time point 90
[13] = 40 mg/kg intragastric, time point 120
[14] = 40 mg/kg intragastric, time point 180
[15] = test dose 10 mg/kg intragastric + oxycodone 2.5 mg/kg s.c.
[16] = test dose 20 mg/kg intragastric + oxycodone 2.5 mg/kg s.c.

Compound | Reaction time for phase I (rat formalin model; 20 mg/kg intragastric) [s] | Reaction time for Phase II (rat formalin model; 20 mg/kg intragastric) [s] | Reaction time for phase I (rat formalin model; 40 mg/kg intragastric) [s] | Reaction time for Phase II (rat formalin model; 40 mg/kg intragastric) [s] | ALT (Wistar rats) [U/L] | AST (Wistar rats) [U/L] | histopathological examination of liver (Wistar rats) | plasma ALT and AST versus control group (Wistar rats) | Analgesic percent ([1]; 20 mg/kg intragastric) [%] | Analgesic percent ([1]; 40 mg/kg intragastric) [%] | Blood pressure (blood pressure in rats; [3]) [mmHg] | Blood pressure (blood pressure in rats; [4]) [mmHg] | Blood pressure (blood pressure in rats; [5]) [mmHg] | Blood pressure (blood pressure in rats; [6]) [mmHg] | Blood pressure (blood pressure in rats; [7]) [mmHg] | Blood pressure (blood pressure in rats; [8]) [mmHg] | Blood pressure (blood pressure in rats; [9]) [mmHg] | Blood pressure (blood pressure in rats; [10]) [mmHg] | Blood pressure (blood pressure in rats; [11]) [mmHg] | Blood pressure (blood pressure in rats; [12]) [mmHg] | also measured
[2H]C([2H])([2H])Oc1c(OC)ccc2c1CN1CCc3cc(OC)c(OC)cc3[C@@H]1C2 [Formula I1, (13a S)-2,3,10-trimethoxy-9-[(trideutero)-methoxy]-6,8,13,13a-tetrahydro-5H-isoquinolino[2,1-b]isoquinoline] | 82.4 ± 33.2 | 194.0 ± 35.7 | 42.6 ± 45.0 | 92.7 ± 25.1 | – | – | – | – | – | – | – | – | – | – | – | – | – | – | – | – | –
[2H]C([2H])([2H])Oc1cc2c(cc1OC)CCN1Cc3c(ccc(OC([2H])([2H])[2H])c3OC)C[C@@H]21 [Formula I6, (13a S)-3,9-dimethoxy-2,10-di-[(trideutero)-methoxy]-6,8,13,13a-tetrahydro-5H-isoquinolino[2,1-b]isoquinoline] | 41.9 ± 9.2 | 66.7 ± 8.7 | 38.6 ± 9.4 | 40.3 ± 9.0 | 165.3 ± 38.0 | 251.8 ± 32.0 | vacuolar degeneration of hepatocytes | significant increase | 63.80 | 69.12 | 115.6 ± 21.9 | 108.5 ± 10.75 | 102.0 ± 11.4 | 104.7 ± 10.70 | 110.5 ± 6.8 | 106.5 ± 13.7 | 111.0 ± 21.4 | 95.4 ± 14.5 | 83.5 ± 10.30 | 85.2 ± 8.0 | Blood pressure (blood pressure in rats; [13]): 110.00 ± 11.6 mmHg; Blood pressure (blood pressure in rats; [14]): 109.5 ± 14.1 mmHg; Heart rate (heart rate in rats; [3]): 407.1 ± 43.4 BTM; Heart rate (heart rate in rats; [4]): 400.2 ± 29.4 BTM; Heart rate (heart rate in rats; [5]): 401.0 ± 28.47 BTM; Heart rate (heart rate in rats; [6]): 403.0 ± 30.2 BTM; Heart rate (heart rate in rats; [7]): 396.7 ± 36.3 BTM; Heart rate (heart rate in rats; [8]): 402.5 ± 28.8 BTM; Heart rate (heart rate in rats; [9]): 414.1 ± 37.6 BTM; Heart rate (heart rate in rats; [10]): 375.8 ± 29.3 BTM; Heart rate (heart rate in rats; [11]): 362.8 ± 20.7 BTM; Heart rate (heart rate in rats; [12]): 367.2 ± 27.0 BTM; Heart rate (heart rate in rats; [13]): 393.5 ± 34.6 BTM; Heart rate (heart rate in rats; [14]): 380.8 ± 30.5 BTM; Time spent in the drug box (Mean ± S) [2, 15]: 183.27 ± 33.97 s; Time spent in the drug box (Mean ± S) [2, 16]: 129.35 ± 23.66 s
[2H]C([2H])([2H])Oc1cc2c(cc1OC)[C@@H]1Cc3ccc(OC)c(OC)c3CN1CC2 [Formula I4, (13a S)-2,9,10-trimethoxy-3-[(trideutero)-methoxy]-6,8,13,13a-tetrahydro-5H-isoquinolino[2,1-b]isoquinoline] | 90.3 ± 29.0 | 151.2 ± 31.6 | 61.5 ± 36.6 | 74.3 ± 38.0 | – | – | – | – | – | – | – | – | – | – | – | – | – | – | – | – | –
COc1cc2c(cc1OC)[C@@H]1Cc3ccc(OC)c(OC)c3CN1CC2 [THP, L-tetrahydropalmatine, reference compound] | 86.8 ± 37.3 | 185.2 ± 39.7 | 40.6 ± 28.3 | 97.5 ± 33.6 | 160.0 ± 70.6 | 216.8 ± 91.6 | vacuolar degeneration of hepatocytes | significant increase | 27.41 | 68.36 | 111.5 ± 11.5 | 109.4 ± 20.6 | 105.00 ± 28.21 | 105.1 ± 20.0 | 112.7 ± 19.3 | 113.3 ± 18.3 | 114.2 ± 14.6 | 98.0 ± 30.1 | 81.63 ± 28.8 | 79.00 ± 28.2 | Blood pressure (blood pressure in rats; [13]): 91.6 ± 24.7 mmHg; Blood pressure (blood pressure in rats; [14]): 97.3 ± 14.5 mmHg; Heart rate (heart rate in rats; [3]): 399.3 ± 32.6 BTM; Heart rate (heart rate in rats; [4]): 377.1 ± 52.3 BTM; Heart rate (heart rate in rats; [5]): 387.3 ± 50.5 BTM; Heart rate (heart rate in rats; [6]): 399.8 ± 60.7 BTM; Heart rate (heart rate in rats; [7]): 408.8 ± 55.9 BTM; Heart rate (heart rate in rats; [8]): 429.8 ± 25.5 BTM; Heart rate (heart rate in rats; [9]): 391.8 ± 32.9 BTM; Heart rate (heart rate in rats; [10]): 372.1 ± 46.5 BTM; Heart rate (heart rate in rats; [11]): 329.0 ± 63.2 BTM; Heart rate (heart rate in rats; [12]): 340.0 ± 71.4 BTM; Heart rate (heart rate in rats; [13]): 372.0 ± 64.6 BTM; Heart rate (heart rate in rats; [14]): 400.0 ± 30.5 BTM; Time spent in the drug box (Mean ± S) [2, 15]: 253.23 ± 77.14 s; Time spent in the drug box (Mean ± S) [2, 16]: 157.04 ± 60.6 s
[2H]C([2H])([2H])Oc1cc2c(cc1OC)CCN1Cc3c(ccc(OC)c3OC)C[C@@H]21 [Formula I3, (13a S)-3,9,10-trimethoxy-2-[(trideutero)-methoxy]-6,8,13,13a-tetrahydro-5H-isoquinolino[2,1-b]isoquinoline] | 79.6 ± 31.3 | 126.3 ± 29.6 | 45.1 ± 29.4 | 72.3 ± 37.8 | – | – | – | – | 44.80 | 68.67 | – | – | – | – | – | – | – | – | – | – | –
[2H]C([2H])([2H])Oc1cc2c(cc1OC)CCN1Cc3c(ccc(OC)c3OC([2H])([2H])[2H])C[C@@H]21 [Formula I5, (13a S)-3,10-dimethoxy-2,9-di-[(trideutero)-methoxy]-6,8,13,13a-tetrahydro-5H-isoquinolino[2,1-b]isoquinoline] | 85.8 ± 28.0 | 112.7 ± 29.2 | 53.4 ± 23.5 | 66.5 ± 27.6 | – | – | – | – | 39.40 | 67.56 | – | – | – | – | – | – | – | – | – | – | –

Reference: patent publication US10617679B2, “Deuterated compounds and medical uses thereof” (JINGLUWEIDAI INFORMATION CONSULTING SERVICE (BEIJING) CO. …, priority 2016, dated 2020)
